Several values for one entry are separate records, joined by “and”; a condition that tells them apart may be missing. Equal values may be shown once. Bridges are numbered along the chain shown (N, C = ends). Roman numbers before positions name the chains, in order. Where no end group is shown, it is not given here. [ ]: non-standard residue; d: D form. Dopa = N[C@@H](Cc1ccc(O)c(O)c1)C(=O)O; ACP = 6-aminocaproic acid (linker); Hyp = O=C(O)[C@@H]1C[C@@H](O)CN1
Legend:
[1] = Fluorescence stability of the 0.05 mg/mL aqueous solution at room temperature; format: physicochemical; conditions: 0.05 mg/mL in distilled water, after one hour at room temperature
Experimental: (§1) The title compound of Example 1 above was dissolved in distilled water to make a 0.05 mg/mL solution. The fluorescence absorption of the solution was scanned at 520 nm using a Hitachi F-7000 fluorescence spectrophotometer with an Interval of 20 nm. The optimal excitation wavelength was 450 nm and the maximum absorption wavelength was 521 nm.

rat rectum [2] = test: In vivo adhesive study: fluorescence imaging of rat rectum after rectal injection
Experimental: as §1
In an in vivo study, four rats were anesthetized by intraperitoneal injection of 5% chloral hydrate at a dose of 7 ml/kg. 1 mL of the solution of test compound was Injected Into the rectum using a 2 mL syringe. Swallowtail clamps were used to seal the anus to keep the liquid in rectum for about 2 hours. Rats were sacrificed at 2 hours, 4 hours, 8 hours and 24 hours after injection of test compound.
(§2) In a separate ex vivo study, rats were anesthetized and their abdominal cavities opened. 8 cm of the rectum was removed and cut Into 2 pieces, with fat and contents stripped. 1 mL of normal saline was used to flush the rectal cavities, which were then placed Into a constant humidity plate. 1 mL of the solution of test compound was Injected Into the rectum and ligated at both ends. Samples were taken at 0 hours, 0.5 hours, 1 hour and 2 hours for fluorescence imaging. A MZX81 fluorescence stereomicroscope was used for imaging (Guangzhou Micro-Shot Technology Co., Ltd).
(§3) The fluorescence Images are show in FIG. 1 (in vivo study) and FIG. 2 (ex vivo study).

rat rectum [3] = test: Ex vivo adhesive study: fluorescence imaging of excised rat rectum; conditions: rat rectum, 0, 0.5, 1 and 2 hours, FIG. 2
Experimental: as §1, §2, §3

[4] = Pharmacokinetic study of tritium-labelled peptide after rectal administration (total radioactivity by liquid scintillation); conditions: for Total radioactivity at 168 h (Cmax %): 168 h as % of Cmax
Experimental: 1 mL of a pH 5.0 acetic acid solution was added to the product of Example 3 above with even mixing. 0.952 mL of the resultant solution was added to a 40 mL glass bottle.
About 200 μL of 0.5% Evans Blue aqueous solution was added followed by even mixing. […] 30 Sprague-Dawley rats, half male and half female (Beijing Vital River Laboratory Animal Technology Co., Ltd.) were quarantined and acclimatised in polycarbonate cages for 5 to 7 days. The environmental conditions were controlled at room temperature of between 20° C. and 26° C., with a relative humidity of between 40% and 70%, with 12 hours of alternating lightness and darkness.
The body weights required for randomization were obtained on Day 1 (before dosing). After randomization, rats were assigned to one of five groups (three animals per sex in each group).
After weighing, animals were anesthetized by Intramuscular Injection of Zoletil-50. The animals were placed on their backs. Stools at the end of their rectums were gently squeezed out, and the skin around anus was disinfected with 75% alcohol.
A closed catheter (No. 8, double lumen with guide wire) was Inserted Into the anus of the rats to a depth of about 3 cm, and then a gastric lavage needle was slowly Inserted to a depth of at least 3.5 cm. After lifting the perlanal skin, fixing the catheter and the gavage needle, about 1 mL of water was Injected Into the bladder cavity of the syringe guide catheter to make it expand. Then the gel comprising the title compound was given quickly through the needle.
After administration, the catheter was ligated and fixed by wrapping tape around the root of the rats' tails. The catheter remained in the rectum for about 4 hours before removal.
Blood, rectal contents and rectal mucosa samples were collected. All centrifuge tubes coated with EDTA-K2 were stored either in a refrigerator (at 2 to 8° C.) or In a cooler filled with Ice, and were protected from light prior to use. The collected blood was transferred Into the centrifuge tubes and stored in an Ice box protected from light after being mixed manually by reversing the tubes at least 5 times.
Then, the tubes were centrifuged at 1800 g for 10 minutes at between 2 and 8° C., 2 hours after blood collection. After centrifugation, the collected plasma samples were transferred Into newly-labeled centrifuge tubes and aliquoted Into two sets, stored ay below −70° C.
Plasma, rectal contents and rectal mucosa samples were analyzed using a liquid scintillation counter, and the radioactive concentration was calculated according to the actual sampling volume. Half-lives were also calculated using WinNonlin software. MS Excel was used for data statistical analysis, including mean, standard deviation (SD), and coefficient of variation (CV), etc.
Total radioactivity unit (ng Eq./g)=DPM/g÷S.A. ×1000, S.A.=144,300 DPM/μg

In the case of “[5-FITC-ACP-Ala-Lys-Pro-Ser-Tyr-Hyp-Thr-DOPA-Hyp-Lys)2-Lys]2-Lys ({5‑FITC-ACP}-AKPSY[Hyp]T[Dopa][Hyp]K; also: branched dendrimer: four peptide copies on a three-Lys core) [Example 1]”, the “fluorescence intensity (stability of test compound in solution)” value [1] is reported as “did not change”, the “adhesiveness of test compound to mucous” value (rat rectum [2]; rat rectum, 2, 4, 8 and 24 hours after injection, FIG. 1) is reported as “very stable” and the “fluorescence intensity in the in vivo samples” value (rat rectum [2]; rat rectum, even with constant fecal excretion) is reported as “did not decrease significantly”. For the same substance, the “adhesiveness of test compound to mucous” value (rat rectum [3]) was “very stable”.
For “I: AKPSY[Hyp]T[Dopa][Hyp]KKK-OH / II: AKPSY[Hyp]T[Dopa][Hyp]KK / III: AKPSY[Hyp]T[Dopa][Hyp]K / IV: AKPSY[Hyp]T[Dopa][Hyp]K (amide I:11-IV:C, I:12-II:C, II:11-III:C) [Example 3, ^3H-Labelled [(Ala-Lys-Pro-Ser-Tyr-Hyp-Thr-DOPA-Hyp-Lys)2-Lys]2-Lys]”, the “radioactivity in rectal mucosa relative to rectal contents” value ([4]; 24 hours after administration) was “about 6.01 times”, the “radioactivity in rectal mucosa relative to rectal contents” value ([4]; 72 hours after administration) was roughly 3.32 times and the “radioactivity in rectal mucosa relative to rectal contents” value ([4]; 168 hours) was 2.28 times. The “radioactivity concentration of rectal mucosa relative to plasma” value ([4]; one hour after rectal administration) was 1121 times, the Total radioactivity ([4]; plasma, 1 h, rectal 1.5 mg/100 μCi/kg, rats) was 47.8 ng Eq./g and 47.8 ± 12.2 ng Eq./g and the Total radioactivity ([4]; plasma, 6 h, rectal 1.5 mg/100 μCi/kg, rats) was 54.1 ng Eq./g and 54.1 ± 14.4 ng Eq./g. The Total radioactivity ([4]; plasma, 24 h, rectal 1.5 mg/100 μCi/kg, rats) was 18.6 ± 6.2 ng Eq./g, the Total radioactivity ([4]; plasma, 72 h, rectal 1.5 mg/100 μCi/kg, rats) was 15.2 ± 8.4 ng Eq./g and the Total radioactivity ([4]; plasma, 168 h, rectal 1.5 mg/100 μCi/kg, rats) was 13.3 ± 3.41 ng Eq./g. For the same substance, the “tolerability of the experimental dose” value ([4]; rectal 1.5 mg/100 μCi/kg, rats) was “well tolerated”, the “adverse reaction after administration” value ([4]; rectal 1.5 mg/100 μCi/kg, rats, whole experiment) was “no obvious adverse reaction” and the “time of highest total radioactivity after administration” value ([4]; rectal contents) was 1 h. For the same substance, the Total radioactivity ([4]; rectal contents, 1 h, rectal 1.5 mg/100 μCi/kg, rats) was 35322 ng Eq./g and 35322 ± 515 ng Eq./g, the Total radioactivity ([4]; rectal contents, 6 h, rectal 1.5 mg/100 μCi/kg, rats) was 21981 ± 153 ng Eq./g and the Total radioactivity ([4]; rectal contents, 24 h, rectal 1.5 mg/100 μCi/kg, rats) was 56.4 ± 54. ng Eq./g. The “average concentration at 24 hours as % of Cmax” value ([4]; rectal contents) was roughly 0.16%, the Total radioactivity ([4]; rectal contents, 72 h, rectal 1.5 mg/100 μCi/kg, rats) was 44.3 ± 27. ng Eq./g and the Total radioactivity ([4]; rectal contents, 168 h, rectal 1.5 mg/100 μCi/kg, rats) was 16.5 ng Eq./g and 16.5 ± 6.88 ng Eq./g. For the same substance, the “Total radioactivity at 168 h (Cmax %)” value ([4]; rectal contents) was 0.05%, the “time of highest total radioactivity after administration” value ([4]; rectal mucosa) was 1 h and the Total radioactivity ([4]; rectal mucosa, 1 h, rectal 1.5 mg/100 μCi/kg, rats) was 53593 ng Eq./g and 53593 ± 472 ng Eq./g. The “radioactivity concentration of rectal mucosa relative to that at 1 h” value ([4]; rectal mucosa, 6 h (11163 ng Eq./g)) was “about 20.83%”, the Total radioactivity ([4]; rectal mucosa, 6 h, rectal 1.5 mg/100 μCi/kg, rats) was 11163 ng Eq./g and 11163 ± 702 ng Eq./g and the Total radioactivity ([4]; rectal mucosa, 24 h, rectal 1.5 mg/100 μCi/kg, rats) was 339 ng Eq./g and 339 ± 95. ng Eq./g. For the same substance, the “average concentration at 24 hours as % of Cmax” value ([4]; rectal mucosa) was “about 0.63%”, the Total radioactivity ([4]; rectal mucosa, 72 h, rectal 1.5 mg/100 μCi/kg, rats) was 147 ng Eq./g and 147 ± 84. ng Eq./g and the Total radioactivity ([4]; rectal mucosa, 168 h, rectal 1.5 mg/100 μCi/kg, rats) was 37.6 ng Eq./g and 37.6 ± 10.2 ng Eq./g. For the same substance, the “Total radioactivity at 168 h (Cmax %)” value ([4]; rectal mucosa) was 0.07% and the “gender differences in total radioactivity concentrations” value ([4]; rectal mucosa, rectal contents and plasma, male vs female rats) was “no significant gender differences”.

Reference: patent US20250066417A9, “NEW PEPTIDE-BASED DIAGNOSTIC AND THERAPEUTIC AGENTS” (ENLITISA (SHANGHAI) PHARMACEUTICAL CO., LTD., priority 2021, published 2025)
